Measurements published in paper PMC9674830, “A glutamine-based single α-helix scaffold to target globular proteins” (Nature Communications, 2022).

Key:
Format in all cases: physicochemical
[1] = CD spectroscopy (helicity); conditions: 30 μM peptide, ratio taken as sign of monomeric helix
Procedure: Peptide samples for CD spectroscopy were diluted to a final concentration of 30 μM in a volume of 400 μL in either 20 mM phosphoric acid (pH 2.8) or sodium phosphate (pH 7.4) buffer. Spectra were obtained at 278 K (unless stated otherwise) in a Jasco 815 UV spectro-photopolarimeter with a 1 mm optical path cuvette using a data interval of 0.2 nm in the 190−260 nm range with a scanning speed of 50 nm min^−1 and 20 accumulations. A blank spectrum acquired on the pertaining buffer under the same experimental conditions was subtracted from the sample spectrum. Thermal denaturation experiments were performed by acquiring a single accumulation spectrum with the same parameters at 10 K intervals, with a temperature ramp speed of 10 K min^−1 and an equilibration time of 1 min.

[2] = NMR residue-specific helical propensity (pHel, CheSPI from backbone chemical shifts); conditions: 278 K, pH 7.4, 100 μM; 9 contiguous residues for (P3-7)2, 16 for (P3-7)3
Procedure: Peptide samples for NMR spectroscopy were diluted to a final concentration of 100 μM in a volume of 400 μL in either 20 mM phosphoric acid (pH 2.8) or sodium phosphate (pH 7.4) buffer with added 10% v/v D2O and 10 μM DSS for internal chemical shift referencing, then filled into Shigemi tubes (Shigemi Co. Ltd, Tokyo, Japan). All NMR experiments were recorded at 278 K (unless stated otherwise) on either a Bruker Avance III 600 MHz or a Bruker Avance NEO 800 MHz spectrometer, both equipped with TCI cryoprobes, using TopSpin 4.0.8 for data acquisition (Bruker, Billerica, MA). Unlabeled synthetic peptides P1-5, P2-6, P3-7, P5-9 were characterized by two-dimensional homonuclear (TOCSY and NOESY) and heteronuclear (^1H-^13C HSQC) experiments. The TOCSY and NOESY mixing times were set to 70 and 200 ms, respectively. Water suppression was achieved by excitation sculpting[59] using a 2 ms long Squa100.1000 selective pulse. For peptide backbone resonance assignment, using uniformly ^15N,^13C labeled peptides, the following series of 3D triple resonance BEST-TROSY[60] experiments were acquired with 25% non-uniform sampling (NUS): HNCO, HN(CA)CO, HN(CO)CA, HNCA, and HN(CO)CACB. For some peptides, we resolved assignment ambiguities by also acquiring a 3D (H)N(CA)NH spectrum. Furthermore, 2D ^13C-detected CACO and CON experiments[61] were measured. […]

[3] = Oligomeric state by SEC-MALS and native MS; conditions: SEC-MALS (and native MS where stated)
Description: To analyze the origin of this behavior and exploit it for peptide design we studied four peptides of identical amino acid composition but with two potential Glni+4 → Leui interactions (pink arrows in Fig. 1a) at different relative positions. The first such interaction is common to all peptides and the second one is shifted 1 (peptide P1-5), 2 (P2-6), 3 (P3-7), or 5 (P5-9) positions towards the C-terminus. After confirming that they were monomeric under our experimental conditions by size exclusion chromatography coupled to multiple angle light scattering (SEC-MALS) (Supplementary Fig. 1d), we used solution-state nuclear magnetic resonance (NMR) spectroscopy to probe their structural properties by exploiting the quantitative dependence of ^13Cα and ^1Hα NMR chemical shifts on residue-specific helical propensity, where larger ^13Cα and lower ^1Hα shifts indicate higher helicity.
We then used CD spectroscopy to study the secondary structure of peptides containing two and three pairs of concatenated Glni+4 → Leui interactions, (P3-7)2 and (P3-7)3, and obtained that they are highly helical and monomeric (Θ222 nm/Θ208 nm < 1) (Fig. 1c, d). […]
These samples were treated with 400 μL of methanol to precipitate the serum proteins and centrifuged for 30 min at 277 K. The supernatant was filtered and analyzed by HPLC to calculate the percentage of intact peptide in the sample. […]

Θ222 nm/Θ208 nm [1]: < 1
Residue-specific helical propensity (pHel) over contiguous residues [2]: > 0.9
Oligomeric state [3]: monomeric
Sequence: KKPGASLAALQALQALQAAQAAKKY [(P3-7)2, Gln-based single α-helix scaffold peptide]
